Source: ChEMBL document CHEMBL1136820, “The role of 2',3'-unsaturation on the antiviral activity of anti-HIV nucleosides against 3TC-resistant mutant (M184V)” (Bioorg Med Chem Lett, 2003)

Assays:
[1] = tested on: HIV-1 reverse transcriptase (Human immunodeficiency virus 1); assay: Ratio for inhibition of HIV-1 RT to that of type and HIV-1 RT M184V mutant was determined
[2] = target: Human immunodeficiency virus type 1 reverse transcriptase (Human immunodeficiency virus 1) (UniProt Q72547); assay: In vitro antiviral activity against HIV-1 Reverse transcriptase wild type
[3] = tested on: Human immunodeficiency virus type 1 reverse transcriptase (Human immunodeficiency virus 1), Q72547 [M184V]; assay: In vitro antiviral activity against HIV-1 Reverse transcriptase M184V mutant

Nc1ccn(C2SC(CO)C=C2F)c(=O)n1 (configuration not stated)
FI [1]: 25
EC90 [2]: 5 µM
EC90 [3]: 125 µM

Nc1nc(=O)n([C@@H]2C=C[C@H](CO)O2)cc1F
FI [1]: 0.8

Nc1ccn([C@@H]2O[C@H](CO)C=C2F)c(=O)n1
FI [1]: 0.23
EC90 [2]: 8 µM
EC90 [3]: 1.8 µM
